The conditions of assay [1]: cited from earlier work.
The subject of assay [2] is Adult male Sprague-Dawley rats. Briefly: Tail-flick analgesic testing after intrathecal administration. The assay is classed as in vivo, rat.
Assay [3] relates to rats with spinal cord transection. Description: Tail-flick analgesic testing after intrathecal administration, acutely transected spinal cord. The assay is classed as in vivo, rat. Conditions: 0.2 ug MS alone.
The conditions of assay [4]: oral, antitussive doses, cited from earlier work; for DOSE (figures in parentheses): not necessarily equieffective.
The conditions of assay [5]: intrathecal administration of morphine; cited from earlier work.
The conditions of assay [6]: 10 mg/70 kg body weight; cited from earlier work.
[7] abbreviates: analgesic effects after subcutaneous administration.

SMILES strings stand for the structures. Like-named read-outs stand apart in the source and are kept apart here.

Consider `CN1CC[C@]23c4c5ccc(O)c4O[C@H]2C(=O)CC[C@@]3(O)[C@H]1C5` [Oxymorphone, dihydrohydroxymorphinone], for which the “DURATION OF ACTION” value in assay [1] (setting [7]) is 4 to 5 h. Further, the “DOSE: amount given subcutaneously that produces approximately the same analgesic effects as 10 mg of morphine” value (from here on “DOSE … of morphine”) in assay [1] (in vivo, sc) is 1.0-1.5.
Take `CN1CC[C@]23CCCC[C@H]2[C@H]1Cc1ccc(O)cc13` [Levorphanol]: in assay [1] (setting [7]), the “DURATION OF ACTION” value is 4 to 5 h. Moreover, the “DOSE … of morphine” value in assay [1] (in vivo, sc) is 2.
Take `CN1CC[C@]23c4c5ccc(O)c4O[C@H]2[C@@H](O)C=C[C@H]3[C@H]1C5.O=S(=O)(O)O` [MS, morphine sulphate]: the analgesic response result in assay [2] (0.02 ug MS alone, intrathecal) was “weak response”; in assay [2] (0.5 ug MS alone, intrathecal) it was “maximal analgesic response between 5 and 30 min”; in assay [3] it was “modest analgesic response”. In assay [2] (0.1 ug MS alone, intrathecal), the “analgesic response, peak” value is on record as “approximately 30 % MPE”. The declined to baseline in assay [2] (0.5 ug MS alone, intrathecal) amounted to 60 min.
With `CN1CC[C@]23c4c5ccc(OCCN6CCOCC6)c4O[C@H]2[C@@H](O)C=C[C@H]3[C@H]1C5` [Pholcodine, β-morpholinylethylmorphine], in assay [4], the “DURATION OF ACTION (figures in parentheses)” value was 4 to 5 h and the “DOSE (figures in parentheses)” value was 5 to 15 mg.
For the compound `COc1ccc2c3c1O[C@H]1[C@@H](O)C=C[C@H]4[C@@H](C2)N(C)CC[C@@]341` [Codeine], in assay [4], the “DURATION OF ACTION (figures in parentheses)” value was 4 to 6 h and the “DOSE (figures in parentheses)” value was 10 to 20 mg. For the same compound, the “DOSE … of morphine” value in assay [1] (in vivo, sc) is given as 120.
With `COc1ccc2c3c1O[C@H]1C(=O)CC[C@H]4[C@@H](C2)N(C)CC[C@]314` [Hyrocodone, dihydrocodeinone], in assay [4], the “DURATION OF ACTION (figures in parentheses)” value is 4 to 8 h and the “DOSE (figures in parentheses)” value is 5 to 10 mg.
As for `CN1CC[C@]23c4c5ccc(O)c4O[C@H]2[C@@H](O)C=C[C@H]3[C@H]1C5` [Morphine], in assay [5], the “effect on hyperalgesia of administered substance P” value was “blocks the hyperalgesic effects”. Besides, in assay [6], the “relieves post-operative pain satisfactorily (share of patients)” value is on record as “about two-thirds”. Moreover, in assay [1] (in vivo, sc), the “DOSE … of morphine” value is 10 and the “DURATION OF ACTION” value is on record as 4-5.
Consider `CCC(=O)C(CC(C)N1CCCCC1)(c1ccccc1)c1ccccc1` (stereo not shown) [Dipipanone], for which the “DURATION OF ACTION” value in assay [1] (setting [7]) was 4 to 5 h. Also, the “DOSE … of morphine” value in assay [1] (in vivo, sc) is 20-25.
On to `C[C@H](CN1CCOCC1)C(C(=O)N1CCCC1)(c1ccccc1)c1ccccc1` [Dextromoramide], for which, in assay [1] (setting [7]), the “DURATION OF ACTION” value was 4 to 5 h. Further, in assay [1] (in vivo, sc), the “DOSE … of morphine” value is recorded as 5-7.5.
For the compound `CCC(=O)C(CC(C)N(C)C)(c1ccccc1)c1ccccc1` (stereo not shown) [Methadone], in assay [1] (setting [7]), the “DURATION OF ACTION” value is 3 to 5 h. Moreover, in assay [1] (in vivo, sc), the “DOSE … of morphine” value was 8-10.
In the case of `CCC(=O)C(CC(C)N1CCOCC1)(c1ccccc1)c1ccccc1` (stereo not shown) [Phenadoxone], the “DURATION OF ACTION” value in assay [1] (setting [7]) was 1 to 3 h. In assay [1] (in vivo, sc), the “DOSE … of morphine” value was 10-20.
`CCC(=O)OC1(c2ccccc2)CCN(C)CC1C` (stereo not shown) [Alphaaprodine, Alphaprodine]: the “DURATION OF ACTION” value in assay [1] (setting [7]) is 1 to 2 h. Besides, in assay [1] (in vivo, sc), the “DOSE … of morphine” value was 40.
Turning to `CCOC(=O)C1(c2ccccc2)CCN(C)CC1` [Meperidine], the “DURATION OF ACTION” value in assay [1] (setting [7]) is 2 to 4 h. Besides, the “DOSE … of morphine” value in assay [1] (in vivo, sc) was 75-100.
For the compound `CC(=O)Oc1ccc2c3c1O[C@H]1[C@@H](OC(C)=O)C=C[C@H]4[C@@H](C2)N(C)CC[C@@]341` [Heroin, diacetylmorphine], in assay [4], the “DOSE (figures in parentheses)” value is 2 to 8 mg. Moreover, the “DURATION OF ACTION” value in assay [1] (setting [7]) was 3 to 4 h. Besides, the “DOSE … of morphine” value in assay [1] (in vivo, sc) was 4.
Take `COc1ccc2c3c1O[C@H]1C(=O)CC[C@@]4(O)[C@@H](C2)N(C)CC[C@]314` [Oxycodone, dihydrohydroxycodeinone]: the “DURATION OF ACTION” value in assay [1] (setting [7]) was 4 to 5 h. Besides, the “DOSE … of morphine” value in assay [1] (in vivo, sc) is recorded as 10-15.
`COc1ccc2c3c1O[C@H]1[C@@H](O)CC[C@H]4[C@@H](C2)N(C)CC[C@@]341` [Drocode, dihydrocodeine]: the “DURATION OF ACTION” value in assay [1] (setting [7]) was 4 to 5 h. Moreover, in assay [1] (in vivo, sc), the “DOSE … of morphine” value is recorded as 60.
Consider `C=CCN1CC[C@]23c4c5ccc(O)c4O[C@H]2C(=O)CC[C@@]3(O)[C@H]1C5` [naloxone], for which the “analgesic response produced by MS in combination with SP after naloxone pretreatment” value in assay [2] (naloxone 1.0 ug intrathecal 10 min prior to 0.1 ug MS + 10 pmol SP) is “essentially eliminated”.
